# Data reported in US20150038545A1, “HYDROXYPHENYL PYRROLE COMPOUNDS CONTAINING AN HYDROXAMIC ACID AS HDAC INHIBITORS AND MEDICINAL APPLICATIONS THEREOF” (UNIVERSIDAD DEL PAÍS VASCO, priority 2011, published 2015).
# What was measured:
# RPMI-8226 = assay: Cancer cell growth inhibition (CellTiter-Glo), RPMI-8226; assay type: cell-based, Human; details: Orthotopic Multiple Myeloma, RPMI-8226, 72 h treatment
# Description: (§1) Cell culture-based assays were used to evaluate the ability of compounds of the invention to inhibit cancer cell growth.
# (§2) Cells were obtained from the American Type Culture Collection (ATCC). Cells were cultured at 37° C. with 5% CO2 in the appropriate growth medium (see table below), and harvested respectively during the logarithmic growth period and counted with hemocytometer. The cell viability was examined by trypan blue exclusion. Cell concentrations were adjusted to 5.56×10^4 cells/ml with respective medium.
# (§3) Stock solutions of test compounds and positive drugs Doxorubicin (Zhejiang, Haizheng, China), Cisplatin (Nanjing Zhiyao, China) and Mitomycin (Zhejiang, Haizheng, China) were prepared in dimethyl sulphoxide (DMSO) or PBS at 20 mM.
# (§4) In order to determine the IC50 for each compound, experiments were carried out in 96-well plates and the cell lines seeded at a density of 5,000 cells/well. […] All treatments were performed in triplicate. 10 μl of drug solution was added to each well and incubated for 72 hours. At the end of the incubation, 100 μl of the CellTiter-Glo Reagent were added to each well and the contents were mixed for 2 munites on an orbital shaker to induce cell lysis. The plate was incubated at room temperature for 10 minutes to stabilize luminiscent signal, and luminiscent was recorded. […] In order to calculate IC50 values, dose-responsive curves were fitted using nonlinear regression model with a sigmoidal dose response.
# DU145 = assay: Cancer cell growth inhibition (CellTiter-Glo), DU145; assay type: cell-based, Human; details: Prostate Cancer, DU145, 72 h treatment
# Description: as §1, §2, §3, §4
# U-87MG = assay: Cancer cell growth inhibition (CellTiter-Glo), U-87MG; assay type: cell-based, Human; details: Glioblastoma, 72 h treatment
# Description: as §1, §2, §3, §4
# Bx-PC-3 = assay: Cancer cell growth inhibition (CellTiter-Glo), Bx-PC-3; assay type: cell-based, Human; details: Pancreatic Cancer, Bx-PC-3, 72 h treatment
# Description: as §1, §2, §3, §4
# SK-MEL-5 = assay: Cancer cell growth inhibition (CellTiter-Glo), SK-MEL-5; assay type: cell-based, Human; details: Melanoma, SK-MEL-5, 72 h treatment
# Description: as §1, §2, §3, §4
# A375 = assay: Cancer cell growth inhibition (CellTiter-Glo), A375; assay type: cell-based, Human; details: Melanoma, A375, 72 h treatment
# Description: as §1, §2, §3, §4
# PC-3 = assay: Cancer cell growth inhibition (CellTiter-Glo), PC-3; assay type: cell-based, Human; details: Prostate Cancer, PC-3, 72 h treatment
# Description: as §1, §2, §3, §4
# DLD-1 = assay: Cancer cell growth inhibition (CellTiter-Glo), DLD-1; assay type: cell-based, Human; details: Colorectal Cancer, DLD-1, 72 h treatment
# Description: as §1, §2, §3, §4
# SK-MES-1 = assay: Cancer cell growth inhibition (CellTiter-Glo), SK-MES-1; assay type: cell-based, Human; details: Lung Cancer, SK-MES-1, 72 h treatment
# Description: as §1, §2, §3, §4
# PANC-1 = assay: Cancer cell growth inhibition (CellTiter-Glo), PANC-1; assay type: cell-based, Human; details: Pancreatic Cancer, PANC-1, 72 h treatment
# Description: as §1, §2, §3, §4
# MCG803 = assay: Cancer cell growth inhibition (CellTiter-Glo), MCG803; assay type: cell-based, Human; details: Gastric Cancer, MCG803, 72 h treatment
# Description: as §1, §2, §3, §4
# NCI-H460 = assay: Cancer cell growth inhibition (CellTiter-Glo), NCI-H460; assay type: cell-based, Human; details: Lung Cancer, NCI-H460, 72 h treatment
# Description: as §1, §2, §3, §4
# SK-OV-3 = assay: Cancer cell growth inhibition (CellTiter-Glo), SK-OV-3; assay type: cell-based, Human; details: Ovarian Cancer, SK-OV-3, 72 h treatment
# Description: as §1, §2, §3, §4
# LoVo = assay: Cancer cell growth inhibition (CellTiter-Glo), LoVo; assay type: cell-based, Human; details: Colorectal Cancer, 72 h treatment
# Description: as §1, §2, §3, §4
# Hep3B = assay: Cancer cell growth inhibition (CellTiter-Glo), Hep3B; assay type: cell-based, Human; details: Liver Cancer, 72 h treatment
# Description: as §1, §2, §3, §4
# NCI-H1703 = assay: Cancer cell growth inhibition (CellTiter-Glo), NCI-H1703; assay type: cell-based, Human; details: Lung Cancer, NCI-H1703, 72 h treatment
# Description: as §1, §2, §3, §4
# OVCAR3 = assay: Cancer cell growth inhibition (CellTiter-Glo), OVCAR3; assay type: cell-based, Human; details: Ovarian Cancer, OVCAR3, 72 h treatment
# Description: as §1, §2, §3, §4
# K562 = assay: Cancer cell growth inhibition (CellTiter-Glo), K562; assay type: cell-based, Human; details: CML, K562, 72 h treatment
# Description: as §1, §2, §3, §4
# KB = assay: Cancer cell growth inhibition (CellTiter-Glo), KB; assay type: cell-based, Human; details: Oral Cancer, 72 h treatment
# Description: as §1, §2, §3, §4
# Calu-6 = assay: Cancer cell growth inhibition (CellTiter-Glo), Calu-6; assay type: cell-based, Human; details: Lung Cancer, Calu-6, 72 h treatment
# Description: as §1, §2, §3, §4
# NCI-N87 = assay: Cancer cell growth inhibition (CellTiter-Glo), NCI-N87; assay type: cell-based, Human; details: Gastric Cancer, NCI-N87, 72 h treatment
# Description: as §1, §2, §3, §4
# SW480 = assay: Cancer cell growth inhibition (CellTiter-Glo), SW480; assay type: cell-based, Human; details: Colorectal Cancer, SW480, 72 h treatment
# Description: as §1, §2, §3, §4
# A549 = assay: Cancer cell growth inhibition (CellTiter-Glo), A549; assay type: cell-based, Human; details: Lung Cancer, A549, 72 h treatment
# Description: as §1, §2, §3, §4
# SK-BR-3 = assay: Cancer cell growth inhibition (CellTiter-Glo), SK-BR-3; assay type: cell-based, Human; details: Breast Cancer, SK-BR-3, 72 h treatment
# Description: as §1, §2, §3, §4
# CNE2 = assay: Cancer cell growth inhibition (CellTiter-Glo), CNE2; assay type: cell-based, Human; details: Nasopharyngeal, CNE2, 72 h treatment
# Description: as §1, §2, §3, §4
# MCF-7 = assay: Cancer cell growth inhibition (CellTiter-Glo), MCF-7; assay type: cell-based, Human; details: Breast Cancer, MCF-7, 72 h treatment
# Description: as §1, §2, §3, §4
# 786-O = assay: Cancer cell growth inhibition (CellTiter-Glo), 786-O; assay type: cell-based, Human; details: Kidney Cancer, 72 h treatment
# Description: as §1, §2, §3, §4
# HT-29 = assay: Cancer cell growth inhibition (CellTiter-Glo), HT-29; assay type: cell-based, Human; details: Colorectal Cancer, HT-29, 72 h treatment
# Description: as §1, §2, §3, §4
# LNCaP = assay: Cancer cell growth inhibition (CellTiter-Glo), LNCaP; assay type: cell-based, Human; details: Prostate Cancer, 72 h treatment
# Description: as §1, §2, §3, §4
# BGC-823 = assay: Cancer cell growth inhibition (CellTiter-Glo), BGC-823; assay type: cell-based, Human; details: Gastric Cancer, BGC-823, 72 h treatment
# Description: as §1, §2, §3, §4
# HT-1080 = assay: Cancer cell growth inhibition (CellTiter-Glo), HT-1080; assay type: cell-based; details: Homo sapiens; Fibrosarcoma, HT-1080, 72 h treatment
# Description: as §1, §2, §3, §4
# MDA-MB-231 = assay: Cancer cell growth inhibition (CellTiter-Glo), MDA-MB-231; assay type: cell-based; details: Homo sapiens; Breast Cancer, MDA-MB-231, 72 h treatment
# Description: as §1, §2, §3, §4
# HepG2 = assay: Cancer cell growth inhibition (CellTiter-Glo), HepG2; assay type: cell-based; details: Homo sapiens; Liver Cancer, HepG2, 72 h treatment
# Description: as §1, §2, §3, §4
# Colo205 = assay: Cancer cell growth inhibition (CellTiter-Glo), Colo205; assay type: cell-based; details: Homo sapiens, COLO 205; Colorectal Cancer, Colo205, 72 h treatment
# Description: as §1, §2, §3, §4
# MIAPaCa-2 = assay: Cancer cell growth inhibition (CellTiter-Glo), MIAPaCa-2; assay type: cell-based; details: Homo sapiens, MIA PaCa-2; Pancreatic Cancer, MIAPaCa-2, 72 h treatment
# Description: as §1, §2, §3, §4
# 143b = assay: Cancer cell growth inhibition (CellTiter-Glo), 143b; assay type: cell-based; details: Homo sapiens, Osteosarcoma, 72 h treatment
# Description: as §1, §2, §3, §4
# SW620 = assay: Cancer cell growth inhibition (CellTiter-Glo), SW620; assay type: cell-based; details: Homo sapiens, SW-620; Colorectal Cancer, SW620, 72 h treatment
# Description: as §1, §2, §3, §4
# BT474 = assay: Cancer cell growth inhibition (CellTiter-Glo), BT474; assay type: cell-based; details: Homo sapiens, BT-474; Breast Cancer, BT474, 72 h treatment
# Description: as §1, §2, §3, §4
# HCT-116 = assay: Cancer cell growth inhibition (CellTiter-Glo), HCT-116; assay type: cell-based; details: Homo sapiens; Colorectal Cancer, HCT-116, 72 h treatment
# Description: as §1, §2, §3, §4
# SK-HEP-1 = assay: Cancer cell growth inhibition (CellTiter-Glo), SK-HEP-1; assay type: cell-based; details: Homo sapiens, SK-HEP1; Liver Cancer, SK-HEP-1, 72 h treatment
# Description: as §1, §2, §3, §4
compound,measurement,setting,value
"N.N.[Cl][Pt][Cl] [Cisplatin, reference compound]",IC50,RPMI-8226,4.57 µM
same,IC50,DU145,1.02 µM
same,IC50,U-87MG,4.76 µM
same,IC50,Bx-PC-3,4.73 µM
same,IC50,SK-MEL-5,5.81 µM
same,IC50,A375,3.16 µM
same,IC50,PC-3,59.5 µM
same,IC50,DLD-1,11.3 µM
same,IC50,SK-MES-1,9.49 µM
same,IC50,PANC-1,22 µM
same,IC50,MCG803,5.08 µM
same,IC50,NCI-H460,1.6 µM
same,IC50,SK-OV-3,9.88 µM
same,IC50,LoVo,10.4 µM
same,IC50,Hep3B,3.96 µM
same,IC50,NCI-H1703,7.56 µM
same,IC50,OVCAR3,4.47 µM
same,IC50,K562,14.8 µM
same,IC50,KB,10.4 µM
same,IC50,Calu-6,2.45 µM
same,IC50,NCI-N87,4.21 µM
same,IC50,SW480,46.6 µM
same,IC50,A549,8.22 µM
same,IC50,SK-BR-3,3.18 µM
same,IC50,CNE2,6.58 µM
same,IC50,MCF-7,22.2 µM
same,IC50,786-O,3.23 µM
same,IC50,HT-29,12.2 µM
same,IC50,LNCaP,6.51 µM
same,IC50,BGC-823,1.15 µM
"COc1cccc2c1C(=O)c1c(O)c3c(c(O)c1C2=O)C[C@@](O)(C(=O)CO)C[C@@H]3O[C@H]1C[C@H](N)[C@H](O)[C@H](C)O1 [Doxorubicin, reference compound]",IC50,HT-1080,0.27 µM
"CO[C@@]12[C@H](COC(N)=O)C3=C(C(=O)C(C)=C(N)C3=O)N1C[C@@H]1N[C@@H]12 [Mitomycin, reference compound]",IC50,MDA-MB-231,19.8 µM
same,IC50,HepG2,0.91 µM
same,IC50,Colo205,2.67 µM
same,IC50,MIAPaCa-2,0.63 µM
same,IC50,143b,0.64 µM
same,IC50,SW620,1.22 µM
same,IC50,BT474,30.3 µM
same,IC50,HCT-116,0.82 µM
same,IC50,SK-HEP-1,8.12 µM
